Source: US6992100B2, “sPLA2 inhibitors” (Eli Lilly and Company, priority 2001, dated 2006)
Counter-ions that a name gives are not always drawn.

Columns and labels:
[1] = target: T1, recombinant human secreted phospholipase A2 (Homo sapiens, UniProt P14555); assay: chromogenic assay of recombinant human secreted phospholipase A2 inhibition; assay type: biochemical; conditions: diheptanoyl thio-PC substrate, pH 7.5, 40° C. 30 minutes, absorbance at 405 nanometers, triplicate
T1 sequence (P14555 21-144): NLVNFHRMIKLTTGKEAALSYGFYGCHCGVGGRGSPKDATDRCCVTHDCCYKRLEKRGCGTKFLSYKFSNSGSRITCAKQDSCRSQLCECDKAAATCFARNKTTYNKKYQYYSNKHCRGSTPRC
Excerpt: The following chromogenic assay procedure was used to identify and evaluate inhibitors of recombinant human secreted phospholipase A2. The assay described herein has been adapted for high volume screening using 96 well microtiter plates. A general description of this assay method is found in the article, “Analysis of Human Synovial Fluid Phospholipase A2 on Short Chain Phosphatidylcholine-Mixed Micelles: Development of a Spectrophotometric Assay Suitable for a Microtiterplate Reader”, by Laure J. Reynolds, Lori L. Hughes, and Edward A. Dennis, Analytical Biochemistry, 204, pp. 190–197, 1992 (the disclosure of which is incorporated herein by reference): […]
A measured volume of racemic dipheptanoyl thio PC supplied in chloroform at a concentration of 100 mg/ml is taken to dryness and redissolved in 10 millimolar TRITON X-100™ nonionic detergent aqueous solution. […]
5. Read absorbance of wells at 405 nanometers with an automatic plate reader.
Tests were done in triplicate. […] Compounds initially found to be active were re-assayed to confirm their activity and, if sufficiently active, IC50 values were determined. […] In all cases, % inhibition measured at 405 nanometers generated by enzyme reactions containing inhibitors relative to the uninhibited control reactions was determined. […]

melting point [°C] | IC50 [1] [µM] | SMILES
242 to 245 |  | NC(=O)c1c2ccsc2nc2c1c1ccccc1n2Cc1ccccc1 [Example 3, 9-Benzyl-9H-1-thia-9,10-diaza-cyclopenta[b]fluorene-4-carboxylic acid amide]
 | 410 | NC(=O)c1cccc2c1c1c(OCC(=O)O)c3c(cc1n2Cc1ccccc1)CCCC3 [Example 2, (5-Benzyl-1-carbamoyl-7,8,9,10-tetrahydro-5H-benzo[b]carbazol-11-yloxy)-acetic acid, sodium salt]
 | 38.6 | NC(=O)c1cccc2c1c1c(OCC(=O)O)c3ccccc3cc1n2Cc1ccccc1 [Example 1, (5-Benzyl-1-carbamoyl-5H-benzo[b]carbazol-11-yloxy)-acetic acid, sodium salt]
